According to paper PMC4434603 (Journal of biomolecular screening, 2011):

T1: His-RORα-LBD (Homo sapiens, UniProt P35398)
T1 sequence (P35398 with tags, fused parts or gaps): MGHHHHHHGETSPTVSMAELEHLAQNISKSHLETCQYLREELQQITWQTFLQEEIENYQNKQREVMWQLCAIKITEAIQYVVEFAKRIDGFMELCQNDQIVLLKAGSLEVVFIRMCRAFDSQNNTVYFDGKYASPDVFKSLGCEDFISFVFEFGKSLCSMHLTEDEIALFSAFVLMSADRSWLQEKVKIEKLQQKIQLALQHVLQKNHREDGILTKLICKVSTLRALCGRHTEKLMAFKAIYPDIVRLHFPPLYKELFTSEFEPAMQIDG

T2: Biotin-PGC-1α NR1 peptide (biotin on the N-terminus)
T2 peptide: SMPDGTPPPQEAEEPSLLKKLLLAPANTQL

B1: His-RORα-LBD (262–523) (domain or fragment)
chain: GETSPTVSMAELEHLAQNISKSHLETCQYLREELQQITWQTFLQEEIENYQNKQREVMWQLCAIKITEAIQYVVEFAKRIDGFMELCQNDQIVLLKAGSLEVVFIRMCRAFDSQNNTVYFDGKYASPDVFKSLGCEDFISFVFEFGKSLCSMHLTEDEIALFSAFVLMSADRSWLQEKVKIEKLQQKIQLALQHVLQKNHREDGILTKLICKVSTLRALCGRHTEKLMAFKAIYPDIVRLHFPPLYKELFTSEFEPAMQIDG

Columns and labels:
His-RORα-LBD = biological target: T1, His-RORα-LBD; assay: HTS LOPAC AlphaScreen screen and compound response curves; format: biochemical; settings: CRC; for EC50: read-out: Final EC50, 50 µM top, 3-fold dilutions, 10 points, triplicate
[1] = biological target: T2, Biotin-PGC-1α NR1 peptide; assay: AlphaScreen or HTRF

Molecule	Hill Slope (His-RORα-LBD)	EC50 (His-RORα-LBD)	EC50 [1]
CC(=O)[C@H]1CC[C@H]2[C@@H]3CCC4=CC(=O)CC[C@]4(C)[C@H]3CC[C@]12C [P 0130]	1.07	0.833 µM	
CC(=O)[C@H]1CCC2C3CC[C@H]4C[C@H](O)CC[C@]4(C)C3CC[C@@]21C (stereo partly drawn) [P 8887]	0.28	0.331 µM	
C[C@]12C=CC(=O)C=C1CC[C@@H]1C2=CC[C@]2(C)[C@@H](C(=O)CN3CCN(c4cc(N5CCCC5)nc(N5CCCC5)n4)CC3)CC[C@@H]12.O=C(O)/C=C\C(=O)O [U 5882]	1.79	0.393 µM	
CCCCCCC(C)(C)c1ccc([C@@H]2C[C@H](O)CC[C@H]2CCCO)c(O)c1 [C 1112]	1.73	0.224 µM	
B1			0.036 µM
